SMILES | melting point
CCc1nc2c(c(=O)n(C)c(=O)n2-c2ccc(Cl)cc2Cl)n1Cc1ccc(OC)cc1 [Example 7, 3-(2,4-dichlorophenyl)-8-ethyl-7-(4-methoxybenzyl)-1-methyl-3,7-dihydro-1H-purine-2,6-dione] | 209 to 210 °C
CCC(CC)n1cnc2c1c(=O)n(C)c(=O)n2-c1ccc(Cl)cc1Cl [Example 5, 3-(2,4-dichlorophenyl)-1-methyl-7-(3-pentyl)-3,7-dihydro-1H-purine-2,6-dione] | 158 to 159 °C
C=CCC(CC=C)n1c(CC)nc2c1c(=O)n(C)c(=O)n2-c1ccc(Cl)cc1Cl [Example 4, 7-(1-allyl-3-butenyl)-3-(2,4-dichlorophenyl)-8-ethyl-1-methyl-3,7-dihydro-1H-purine-2,6-dione] | 145 to 146 °C
CCCC(CCC)n1c(CC)nc2c1c(=O)n(C)c(=O)n2-c1ccc(Cl)cc1Cl [Example 2, 3-(2,4-dichlorophenyl)-8-ethyl-7-(4-heptyl)-1-methyl-3,7-dihydro-1H-purine-2,6-dione] | 185 to 186 °C
CCCC(CCC)n1c(CC)nc2c1c(=O)n(C)c(=O)n2-c1c(C)cc(C)cc1C [Example 79, 8-ethyl-7-(4-heptyl)-1-methyl-3-(2,4,6-trimethylphenyl)-3,7-dihydro-1H-purine-2,6-dione] | 195 to 195.5 °C
CCCC(CCC)n1c(CC)nc2c1c(=O)n(C)c(=O)n2-c1c(OC)ccnc1C [Example 117, 8-ethyl-7-(4-heptyl)-3-(4-methoxy-2-methylpyrid-3-yl)-1-methyl-3,7-dihydro-1H-purine-2,6-dione] | 124 to 126 °C
CCc1nc2c(c(=O)n(C)c(=O)n2-c2ccc(Cl)cc2Cl)n1C(CC)CC [Example 1, 3-(2,4-dichlorophenyl)-8-ethyl-1-methyl-7-(3-pentyl)-3,7-dihydro-1H-purine-2,6-dione] | 186 to 187 °C

Source: US7098217B2, “3,7-dihydro-purine-2,6-dione derivatives as CRF receptor ligands” (Bristol-Myers Squibb Company, priority 2001, dated 2006)
